Activity calls are given as the source filed them.
Legend:
[1] = target: Intestinal-type alkaline phosphatase (Mus musculus, UniProt P24822); assay: PubChem AID 488785; assay type: functional
[2] = target: Intestinal-type alkaline phosphatase (Homo sapiens, UniProt P09923); assay: activation of human intestinal alkaline phosphatase – biochemical, dose response (AID 488873); assay type: functional
[3] = target: T1, Sentrin-specific protease 8 (Homo sapiens, UniProt Q96LD8); assay: SENP8 protease inhibitors, SAR follow-up, biochemical, luminescence (AID 504501); assay type: functional
T1 sequence (Q96LD8 whole entry): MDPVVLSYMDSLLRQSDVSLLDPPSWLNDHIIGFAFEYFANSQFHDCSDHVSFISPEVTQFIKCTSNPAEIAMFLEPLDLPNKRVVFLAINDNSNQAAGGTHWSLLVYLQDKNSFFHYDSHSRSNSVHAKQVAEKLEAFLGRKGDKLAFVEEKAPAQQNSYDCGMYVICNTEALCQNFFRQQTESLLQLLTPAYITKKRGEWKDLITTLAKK

[4] = target: T2, Apoptotic protease-activating factor 1 (Homo sapiens, UniProt O14727); assay type: functional
T2 sequence (O14727 whole entry): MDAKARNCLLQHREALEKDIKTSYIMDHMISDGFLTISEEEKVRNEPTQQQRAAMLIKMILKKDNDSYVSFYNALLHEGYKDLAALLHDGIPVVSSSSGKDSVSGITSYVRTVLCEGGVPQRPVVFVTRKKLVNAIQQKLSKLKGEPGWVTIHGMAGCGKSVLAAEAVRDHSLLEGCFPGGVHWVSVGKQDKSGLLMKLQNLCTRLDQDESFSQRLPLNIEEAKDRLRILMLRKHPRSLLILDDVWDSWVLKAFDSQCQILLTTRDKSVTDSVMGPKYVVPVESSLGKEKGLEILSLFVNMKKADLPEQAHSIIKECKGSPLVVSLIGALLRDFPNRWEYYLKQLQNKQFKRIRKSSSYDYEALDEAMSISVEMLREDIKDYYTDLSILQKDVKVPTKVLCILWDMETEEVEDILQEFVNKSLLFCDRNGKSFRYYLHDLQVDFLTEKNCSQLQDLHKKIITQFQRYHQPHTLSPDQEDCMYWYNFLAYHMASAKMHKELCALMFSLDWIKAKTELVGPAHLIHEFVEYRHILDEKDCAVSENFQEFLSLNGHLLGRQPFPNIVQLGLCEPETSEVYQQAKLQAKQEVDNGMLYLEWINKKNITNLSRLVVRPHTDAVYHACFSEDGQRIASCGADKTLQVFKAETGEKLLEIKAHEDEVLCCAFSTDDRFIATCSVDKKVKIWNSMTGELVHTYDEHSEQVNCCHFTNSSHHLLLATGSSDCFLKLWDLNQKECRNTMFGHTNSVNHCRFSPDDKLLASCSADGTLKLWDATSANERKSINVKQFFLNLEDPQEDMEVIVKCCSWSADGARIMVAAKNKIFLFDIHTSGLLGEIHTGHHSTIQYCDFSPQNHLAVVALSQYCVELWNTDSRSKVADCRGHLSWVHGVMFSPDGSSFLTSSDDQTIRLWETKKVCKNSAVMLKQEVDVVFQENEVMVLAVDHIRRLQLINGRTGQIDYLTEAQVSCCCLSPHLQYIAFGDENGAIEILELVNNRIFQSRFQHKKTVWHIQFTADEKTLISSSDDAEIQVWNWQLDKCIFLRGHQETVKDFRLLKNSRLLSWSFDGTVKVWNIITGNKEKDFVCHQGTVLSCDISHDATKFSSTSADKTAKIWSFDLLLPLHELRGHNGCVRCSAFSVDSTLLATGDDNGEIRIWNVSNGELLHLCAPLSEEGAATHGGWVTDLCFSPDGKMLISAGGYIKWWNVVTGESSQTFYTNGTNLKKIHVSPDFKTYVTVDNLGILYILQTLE

[5] = HCT116 cell viability decrease, GSK3B pretreatment – CellTiter-Glo, IC50, dose response (AID 1117339); assay type: functional; settings: HCT-116
[6] = cytotoxicity toward DRD oncogenic fibroblasts, dose response, cell-based, non-viral oncogenic, luminescence (AID 1934); assay type: functional; settings: Homo sapiens
[7] = target: T3, Zinc finger protein mex-5 (Caenorhabditis elegans, UniProt Q9XUB2); assay: MEX-5/TCR-2 RNA interaction inhibitors, dose response, biochemical, C. elegans, fluorescence polarization (AID 1960)
T3 sequence (Q9XUB2 whole entry): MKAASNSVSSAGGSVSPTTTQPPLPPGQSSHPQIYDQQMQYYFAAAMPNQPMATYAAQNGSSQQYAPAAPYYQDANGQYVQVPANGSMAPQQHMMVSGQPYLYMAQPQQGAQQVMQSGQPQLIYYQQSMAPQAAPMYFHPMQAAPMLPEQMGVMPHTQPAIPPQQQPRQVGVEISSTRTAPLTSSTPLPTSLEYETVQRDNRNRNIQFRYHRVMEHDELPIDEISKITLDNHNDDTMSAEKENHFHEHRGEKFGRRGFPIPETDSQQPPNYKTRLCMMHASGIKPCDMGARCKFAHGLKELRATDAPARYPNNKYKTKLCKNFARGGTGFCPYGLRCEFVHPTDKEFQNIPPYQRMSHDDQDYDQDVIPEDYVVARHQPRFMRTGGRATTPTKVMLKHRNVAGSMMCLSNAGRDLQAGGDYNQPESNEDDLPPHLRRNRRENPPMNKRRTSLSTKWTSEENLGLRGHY

[8] = target: T4, Heat shock factor protein 1 (Mus musculus, UniProt P38532); assay: HSF1 potentiators in luciferase reporter cells, confirmation, cell-based, NIH3T3, luminescence, dose retest (AID 435004); assay type: functional;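 further: stress induced by proteasome inhibitor MG132 added 30 min after compound; luciferase reporter driven by HSF1 response element in NIH3T3 cells; actives raise luminescence as potentiators of the MG132 stress response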
T4 sequence (P38532 whole entry): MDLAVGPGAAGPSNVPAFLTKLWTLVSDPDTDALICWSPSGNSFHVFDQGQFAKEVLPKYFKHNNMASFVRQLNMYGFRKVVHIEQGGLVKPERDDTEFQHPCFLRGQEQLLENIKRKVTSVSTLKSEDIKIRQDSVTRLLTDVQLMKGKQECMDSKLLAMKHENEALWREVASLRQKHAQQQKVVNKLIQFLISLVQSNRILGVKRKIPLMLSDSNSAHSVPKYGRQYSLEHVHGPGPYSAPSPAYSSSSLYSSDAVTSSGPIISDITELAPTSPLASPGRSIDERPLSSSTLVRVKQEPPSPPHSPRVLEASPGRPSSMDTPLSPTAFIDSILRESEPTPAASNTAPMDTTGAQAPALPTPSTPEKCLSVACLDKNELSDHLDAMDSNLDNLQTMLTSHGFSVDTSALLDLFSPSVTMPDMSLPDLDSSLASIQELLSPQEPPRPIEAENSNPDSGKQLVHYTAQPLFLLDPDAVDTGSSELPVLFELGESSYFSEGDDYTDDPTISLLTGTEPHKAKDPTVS

[9] = cytotoxicity toward HT-29 cells – cell-based, CellTiter-Glo luminescence, IC50, dose response (AID 1117330); assay type: functional
[10] = SNU-C1 cell viability reduction, dose response, CellTiter-Glo luminescence (AID 1117323); assay type: functional, cell-based
[11] = HeLa cell cytotoxicity, dose response, cytotoxicity control for MgcRacGAP inhibitor project (AID 624300); assay type: functional

Sequence of Intestinal-type alkaline phosphatase (Homo sapiens, UniProt P09923) (P09923 whole entry): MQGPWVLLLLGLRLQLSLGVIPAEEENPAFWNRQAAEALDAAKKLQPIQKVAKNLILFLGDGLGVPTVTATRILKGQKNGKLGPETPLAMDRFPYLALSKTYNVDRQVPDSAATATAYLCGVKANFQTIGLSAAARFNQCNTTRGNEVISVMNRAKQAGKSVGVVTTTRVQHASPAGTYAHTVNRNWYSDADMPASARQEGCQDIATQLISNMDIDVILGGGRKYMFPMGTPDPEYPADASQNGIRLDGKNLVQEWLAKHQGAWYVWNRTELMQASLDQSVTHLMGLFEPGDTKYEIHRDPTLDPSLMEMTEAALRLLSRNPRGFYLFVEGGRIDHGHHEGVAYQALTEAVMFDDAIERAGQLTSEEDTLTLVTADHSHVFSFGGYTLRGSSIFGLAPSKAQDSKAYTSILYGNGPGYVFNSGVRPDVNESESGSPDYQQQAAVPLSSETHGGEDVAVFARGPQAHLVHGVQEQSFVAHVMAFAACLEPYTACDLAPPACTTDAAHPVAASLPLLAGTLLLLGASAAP
Sequence of Intestinal-type alkaline phosphatase (Mus musculus, UniProt P24822) (P24822 whole entry): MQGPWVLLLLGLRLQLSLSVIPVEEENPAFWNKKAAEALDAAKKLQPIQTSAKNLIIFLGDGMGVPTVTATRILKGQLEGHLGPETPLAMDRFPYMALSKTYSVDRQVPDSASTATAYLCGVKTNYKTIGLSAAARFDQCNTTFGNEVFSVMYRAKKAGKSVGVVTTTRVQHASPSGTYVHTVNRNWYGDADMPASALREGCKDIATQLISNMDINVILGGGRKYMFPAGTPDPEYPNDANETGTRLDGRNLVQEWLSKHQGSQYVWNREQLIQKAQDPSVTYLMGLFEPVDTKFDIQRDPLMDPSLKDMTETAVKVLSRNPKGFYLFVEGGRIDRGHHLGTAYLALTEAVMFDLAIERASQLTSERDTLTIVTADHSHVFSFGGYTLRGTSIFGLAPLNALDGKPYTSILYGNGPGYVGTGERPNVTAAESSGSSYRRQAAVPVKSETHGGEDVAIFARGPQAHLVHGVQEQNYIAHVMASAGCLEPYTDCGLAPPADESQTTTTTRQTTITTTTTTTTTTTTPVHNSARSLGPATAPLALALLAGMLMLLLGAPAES

SMILES	IC50 [1]	EC50 [2]	IC50 [3]	IC50 [4]	IC50 [5]	EC50 [6]	EC50 [7]	EC50 [8]	IC50 [9]	IC50 [10]	CC50 [11]
Oc1ccc(/C=N/Nc2cc(N3CCCC3)nc(N3CCCC3)n2)cc1O	1.51 µM (active)	> 100 µM (inactive)	> 99 µM (inactive)	2.56 µM (active)							
Cc1cc2nc3ccc(N(C)C)cc3[s+]c2cc1N [TOLONIUM CHLORIDE]					1.69 µM (active)	8.46 µM (inconclusive)	35.6 µM (active)	> 260 µM (inactive)	5.06 µM (inactive)	5.56 µM (inactive)	25 µM (active)
CCCOc1cc2c(C#N)c(N3CCCC3)nc(N)c2c(N)n1				15 µM (active)							
